Results: PubChem BioAssay AID2060905 (Molecular Pharmacology Branch, DTP, NCI, 2025)

System: 282377-053-R-J1-PDC complex spheroid viability
Assay: Anticancer human tumor 282377-053-R-J1-PDC patient-derived colon adenocarcinoma cell line growth inhibition [RAS]
Conditions: for IC50: curve of first compound; for viability, T/C: stronger effect = lower value; active means viability on the fitted dose curve at most 10% of control; inactive means the rest
Description: RAS pathway inhibitors in Combinations in Complex Spheroids
A high-throughput screen of multi-cell type tumor spheroids was designed to identify active combinations of RAS pathway inhibitors and targeted small molecules. Complex spheroids include a stromal component modeled by human endothelial cells (HUVEC) and fibroblasts modeled by human mesenchymal stem cells (MSCs). The concentration ranges selected for each drug and investigational agent were based upon clinically achievable concentrations if the clinical Cmax of the agent was known.
Compounds. The drugs and investigational agents: abemaciclib (NSC768073), cobimetinib (NSC768068), divarasib (GDC6063, NSC841802), docetaxel (NSC628503), GDC-1971 (RLY-1971, NSC841576), gemcitabine (NSC613327), inavolisib (NSC800729), ipatasertib (NSC767898), KB-0742 (NSC834161), MRTX-1133 (NSC836407), osimertinib (NSC779217), RMC-4630 (NSC839698), RMC-6236 (NSC851965), RMC-6291 (NSC852671), Ro-3306 (NSC812927), sapanisertib (NSC764658), SN-38 (NSC673596), staurosporine (NSC755774), SY5609 (NSC837396), and tovorafenib (DAY101, NSC766906), were obtained from the National Cancer Institute (NCI) Developmental Therapeutics Program Chemical Repository. The FDA-approved anticancer drug set is available from the NCI Developmental Therapeutics Program. […] The stock solutions were prepared in dimethyl sulfoxide (DMSO, Sigma-Aldrich, St. Louis, MO, cat. D2650) at 800-fold the tested concentration and stored at -70 degrees C prior to their use. All drugs and investigational agents were tested over a range starting from a high concentration at or near the clinical Cmax and decreasing in half-log increments. If the clinical Cmax for an agent had not been determined, the highest concentration tested was 10 microM.
Cell Culture. All cells were maintained in an incubator at 37 degrees C and 5% CO2 with 95% humidity. The PDC lines were cultured according to standard operating procedures established by the NCI PDMR. All PDCs were thawed and cultured in Matrigel-coated flasks prepared with a working solution of 1X Ham's F-12 nutrient mix, without supplementation (Invitrogen, Waltham, MA, cat. 11765054), 100 U/mL penicillin-streptomycin (Invitrogen, cat. 15140122), and 2.5% Matrigel (Corning Inc., Corning, NY, cat. 354248) for the first three passages. The 362531-283-R-J2-PDC and 782815-120-R-J1-PDC lines were cultured in 6C/Colon 1B media, which includes advanced DMEM/F-12 (Thermo Fisher Scientific, cat. 12634028), 10 mM HEPES (Thermo Fisher Scientific, cat. 15630080), 1X GlutaMAX supplement (Thermo Fisher Scientific, cat. 35050061), 0.1 mg/mL primocin (InvivoGen, San Diego, CA, cat. ant-pm-2), 10% defined fetal bovine serum, heat inactivated (HyClone Laboratories Inc., Logan, UT, cat. SH30070.03HI), 50% L-WRN conditioned media (ATCC, cat. CRL-3276), 1.25 mM N-Acetyl-L-cysteine (Sigma-Aldrich, cat. A9165), 10 mM nicotinamide (Sigma-Aldrich, cat. N0636), 1X B-27 supplement (Thermo Fisher Scientific, cat. 17504044), 1X N-2 supplement (Thermo Fisher Scientific, cat. 17502048), 50 ng/mL human EGF (Thermo Fisher Scientific, cat. PHG0311), and 10 microM Y-27632 dihydrochloride (Tocris Bioscience, cat. 1254). The K12877-001-R-J1-PDC line was cultured in 6I media, which includes all 6C/Colon 1B media plus 10 ng/mL human FGF-10 (PeproTech, cat. 100-26), 1 ng/mL human FGF-2 (PeproTech, cat. 100-18B), 1 µM prostaglandin E2 (Tocris Bioscience, cat. 2296), […] hydrocortisone (Sigma-Aldrich, cat. H4001), and […] bovine insulin (Sigma-Aldrich, cat. I6634). The K86415-001-R-J1-PDC line was cultured in 6D media, which includes all 6C/Colon 1B media components minus the L-WRN conditioned media. The 485176-168-R4-J1-PDC was cultured in PANC media, which includes all 6C/Colon 1B media plus 100 ng/mL human FGF-10 (PeproTech, cat. 100-26), 500 nM SB-431542 (Selleckchem, cat. S1067), and 10 nM gastrin (Tocris Bioscience, cat. 3006). […]

[1] = second compound 0.0316 µM, first compound 0.0316 µM
[2] = second compound 0.0316 µM, first compound 0.1 µM
[3] = second compound 0.0316 µM, first compound 0.316 µM
[4] = second compound 0.0316 µM, first compound 1 µM
[5] = second compound 0.0316 µM, first compound 3.16 µM
[6] = second compound 0.0316 µM, first compound 10 µM
[7] = second compound 0.1 µM, first compound 0.0316 µM
[8] = second compound 0.1 µM, first compound 0.1 µM
[9] = second compound 0.1 µM, first compound 0.316 µM
[10] = second compound 0.1 µM, first compound 1 µM
[11] = second compound 0.1 µM, first compound 3.16 µM
[12] = second compound 0.1 µM, first compound 10 µM
[13] = second compound 0.316 µM, first compound 0.0316 µM
[14] = second compound 0.316 µM, first compound 0.1 µM
[15] = second compound 0.316 µM, first compound 0.316 µM
[16] = second compound 0.316 µM, first compound 1 µM
[17] = second compound 0.316 µM, first compound 3.16 µM
[18] = second compound 0.316 µM, first compound 10 µM
[19] = second compound 1 µM, first compound 0.0316 µM
[20] = second compound 1 µM, first compound 0.1 µM
[21] = second compound 1 µM, first compound 0.316 µM
[22] = second compound 1 µM, first compound 1 µM
[23] = second compound 1 µM, first compound 3.16 µM
[24] = second compound 1 µM, first compound 10 µM
[25] = second compound 3.16 µM, first compound 0.0316 µM
[26] = second compound 3.16 µM, first compound 0.1 µM
[27] = second compound 3.16 µM, first compound 0.316 µM
[28] = second compound 3.16 µM, first compound 1 µM
[29] = second compound 3.16 µM, first compound 3.16 µM
[30] = second compound 3.16 µM, first compound 10 µM
[31] = second compound 10 µM, first compound 0.0316 µM
[32] = second compound 10 µM, first compound 0.1 µM
[33] = second compound 10 µM, first compound 0.316 µM
[34] = second compound 10 µM, first compound 1 µM
[35] = second compound 10 µM, first compound 3.16 µM
[36] = second compound 10 µM, first compound 10 µM
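Further: spheroids exposed to agents for seven days before readout.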
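Wherever viability, T/C is given: luminescence viability as percent of DMSO vehicle control wells.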

CC1(O)CCCC1n1c(=O)c(C(F)F)cc2cnc(NC3CCN(S(C)(=O)=O)CC3)nc21 (stereo unspecified) + C#Cc1c(F)ccc2cc(O)cc(-c3ncc4c(N5CC6CCC(C5)N6)nc(OCC56CCCN5CC(F)C6)nc4c3F)c12
6100 nM: IC50 (second compound 0.316 µM)
6170 nM: IC50 (second compound 3.16 µM)
active: viability, T/C [6] 2.6% | viability, T/C [12] 3.18% | viability, T/C [18] 3.11% | viability, T/C [24] 3.32% | viability, T/C [30] 4.31% | viability, T/C [36] 2.84%
inactive: viability, T/C [1] 102% | viability, T/C [2] 115% | viability, T/C [3] 135% | viability, T/C [4] 121% | viability, T/C [5] 121% | viability, T/C [7] 109% | viability, T/C [8] 117% | viability, T/C [9] 128% | viability, T/C [10] 125% | viability, T/C [11] 111% | viability, T/C [13] 117% | viability, T/C [14] 126% | viability, T/C [15] 120% | viability, T/C [16] 108% | viability, T/C [17] 112% | viability, T/C [19] 98.9% | viability, T/C [20] 111% | viability, T/C [21] 123% | viability, T/C [22] 110% | viability, T/C [23] 122% | viability, T/C [25] 94.4% | viability, T/C [26] 127% | viability, T/C [27] 130% | viability, T/C [28] 102% | viability, T/C [29] 113% | viability, T/C [31] 99% | viability, T/C [32] 117% | viability, T/C [33] 116% | viability, T/C [34] 121% | viability, T/C [35] 132%
6130 nM: IC50 (second compound 1 µM)
6210 nM: IC50 (second compound 10 µM)
6080 nM: IC50 (second compound 0.1 µM)
6260 nM: IC50 (second compound 0.0316 µM)

CCC(CC)c1cc(NC2CCC(N)C2)n2nccc2n1 (stereo unspecified) + C#Cc1c(F)ccc2cc(O)cc(-c3ncc4c(N5CC6CCC(C5)N6)nc(OCC56CCCN5CC(F)C6)nc4c3F)c12
2020 nM: IC50 (second compound 0.1 µM)
1910 nM: IC50 (second compound 3.16 µM)
inactive: viability, T/C [1] 113% | viability, T/C [2] 120% | viability, T/C [3] 89.4% | viability, T/C [4] 111% | viability, T/C [7] 113% | viability, T/C [8] 123% | viability, T/C [9] 94.9% | viability, T/C [10] 118% | viability, T/C [11] 10.2% | viability, T/C [13] 107% | viability, T/C [14] 102% | viability, T/C [15] 81.3% | viability, T/C [16] 96.9% | viability, T/C [19] 103% | viability, T/C [20] 95.4% | viability, T/C [21] 86.8% | viability, T/C [22] 84.6% | viability, T/C [25] 99.5% | viability, T/C [26] 112% | viability, T/C [27] 104% | viability, T/C [28] 100% | viability, T/C [29] 10.8% | viability, T/C [31] 101% | viability, T/C [32] 95.9% | viability, T/C [33] 96.3% | viability, T/C [34] 89.4%
1700 nM: IC50 (second compound 1 µM)
active: viability, T/C [5] 9.2% | viability, T/C [6] 2.06% | viability, T/C [12] 2.09% | viability, T/C [17] 9.63% | viability, T/C [18] 2.11% | viability, T/C [23] 9.29% | viability, T/C [24] 2.23% | viability, T/C [30] 2.69% | viability, T/C [35] 9.18% | viability, T/C [36] 3.74%
1860 nM: IC50 (second compound 0.316 µM)
1760 nM: IC50 (second compound 10 µM)
1970 nM: IC50 (second compound 0.0316 µM)

CCN1CCN(Cc2ccc(Nc3ncc(F)c(-c4cc(F)c5nc(C)n(C(C)C)c5c4)n3)nc2)CC1 + C#Cc1c(F)ccc2cc(O)cc(-c3ncc4c(N5CC6CCC(C5)N6)nc(OCC56CCCN5CC(F)C6)nc4c3F)c12
inactive: viability, T/C (second compound 0.0316 µM, first compound 0.00316 µM) 101% | viability, T/C (second compound 0.0316 µM, first compound 0.01 µM) 101% | viability, T/C [1] 112% | viability, T/C [2] 119% | viability, T/C [3] 127% | viability, T/C [4] 127% | viability, T/C (second compound 0.1 µM, first compound 0.00316 µM) 125% | viability, T/C (second compound 0.1 µM, first compound 0.01 µM) 95.5% | viability, T/C [7] 107% | viability, T/C [8] 106% | viability, T/C [9] 135% | viability, T/C [10] 126% | viability, T/C (second compound 0.316 µM, first compound 0.00316 µM) 105% | viability, T/C (second compound 0.316 µM, first compound 0.01 µM) 108% | viability, T/C [13] 109% | viability, T/C [14] 121% | viability, T/C [15] 117% | viability, T/C [16] 129% | viability, T/C (second compound 1 µM, first compound 0.00316 µM) 97.3% | viability, T/C (second compound 1 µM, first compound 0.01 µM) 100% | viability, T/C [19] 96.7% | viability, T/C [20] 103% | viability, T/C [21] 119% | viability, T/C [22] 132% | viability, T/C (second compound 3.16 µM, first compound 0.00316 µM) 107% | viability, T/C (second compound 3.16 µM, first compound 0.01 µM) 112% | viability, T/C [25] 103% | viability, T/C [26] 118% | viability, T/C [27] 134% | viability, T/C [28] 131% | viability, T/C (second compound 10 µM, first compound 0.00316 µM) 90.2% | viability, T/C (second compound 10 µM, first compound 0.01 µM) 90.1% | viability, T/C [31] 101% | viability, T/C [32] 111% | viability, T/C [33] 104% | viability, T/C [34] 120%
> 1000 nM: IC50 (second compound 0.0316 µM) | IC50 (second compound 0.1 µM) | IC50 (second compound 0.316 µM) | IC50 (second compound 1 µM) | IC50 (second compound 3.16 µM) | IC50 (second compound 10 µM)
